{"source": "patent US10023601B2", "about": "“Hydrolysis resistant sialic acid derivatives and methods for their use” (The University of British Columbia, priority 2014, dated 2018)", "key": {"[1]": {"assay": "Spontaneous hydrolysis of CMP 7-modified sialic acids by 1H-NMR", "type": "physicochemical"}, "[2]": {"target": "Cst-I (Campylobacter jejuni, UniProt Q9RGF1)", "sequence (Q9RGF1 1-285 limits assumed)": "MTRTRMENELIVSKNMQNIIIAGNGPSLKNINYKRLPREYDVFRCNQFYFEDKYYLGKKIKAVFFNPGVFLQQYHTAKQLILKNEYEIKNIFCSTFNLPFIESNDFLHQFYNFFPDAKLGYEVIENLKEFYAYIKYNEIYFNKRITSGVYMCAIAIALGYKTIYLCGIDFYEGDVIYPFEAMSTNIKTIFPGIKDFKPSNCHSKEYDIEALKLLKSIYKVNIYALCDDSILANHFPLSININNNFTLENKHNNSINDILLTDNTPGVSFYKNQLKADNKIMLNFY"}, "[3]": {"target": "T1, Pm0188h (Pasteurella multocida, UniProt Q15KI8)", "T1 sequence (Q15KI8 26-412)": "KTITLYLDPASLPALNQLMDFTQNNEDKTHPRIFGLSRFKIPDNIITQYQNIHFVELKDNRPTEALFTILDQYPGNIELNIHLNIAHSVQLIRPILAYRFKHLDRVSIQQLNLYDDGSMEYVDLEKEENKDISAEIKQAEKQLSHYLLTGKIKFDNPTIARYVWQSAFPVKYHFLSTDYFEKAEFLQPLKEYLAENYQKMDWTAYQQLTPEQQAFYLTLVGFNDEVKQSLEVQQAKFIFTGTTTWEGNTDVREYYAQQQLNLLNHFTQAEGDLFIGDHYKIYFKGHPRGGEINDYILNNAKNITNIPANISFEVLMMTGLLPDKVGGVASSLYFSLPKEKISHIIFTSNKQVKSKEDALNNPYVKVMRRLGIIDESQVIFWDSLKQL", "assay": "Sialyltransferase kinetics, CMP release assay, transfer to lactose by Pm0188h"}, "[4]": {"assay": "Spontaneous hydrolysis of 7-modified sialyl-galactose conjugates by 1H-NMR", "type": "physicochemical", "conditions": "high salt, dilute acid (25 mM HCl)"}, "[5]": {"target": "T2, T. rangeli (GH33) sialidase (TrSA) (Trypanosoma rangeli, UniProt O44049)", "T2 sequence (O44049 23-660)": "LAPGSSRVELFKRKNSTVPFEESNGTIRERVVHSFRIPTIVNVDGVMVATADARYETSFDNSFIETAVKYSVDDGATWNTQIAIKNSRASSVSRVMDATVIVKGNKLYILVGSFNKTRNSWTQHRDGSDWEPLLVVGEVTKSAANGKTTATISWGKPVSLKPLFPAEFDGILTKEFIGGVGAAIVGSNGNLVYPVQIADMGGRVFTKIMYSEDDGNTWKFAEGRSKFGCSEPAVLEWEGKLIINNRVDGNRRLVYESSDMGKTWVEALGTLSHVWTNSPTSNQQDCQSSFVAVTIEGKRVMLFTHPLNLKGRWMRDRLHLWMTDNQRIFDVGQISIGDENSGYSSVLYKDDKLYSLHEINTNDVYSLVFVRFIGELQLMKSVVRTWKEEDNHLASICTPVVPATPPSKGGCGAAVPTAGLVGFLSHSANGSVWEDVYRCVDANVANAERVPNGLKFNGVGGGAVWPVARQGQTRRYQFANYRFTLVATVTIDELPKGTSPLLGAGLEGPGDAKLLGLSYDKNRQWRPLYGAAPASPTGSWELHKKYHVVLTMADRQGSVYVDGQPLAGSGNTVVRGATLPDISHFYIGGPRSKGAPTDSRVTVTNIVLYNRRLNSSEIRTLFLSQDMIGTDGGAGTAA", "assay": "Sialidase kinetics, β-galactosidase coupled assay, T. rangeli sialidase"}, "[6]": {"target": "influenza neuraminidase N9 (GH34) (Influenza A virus, UniProt P03472)", "sequence (P03472 whole entry, looked up)": "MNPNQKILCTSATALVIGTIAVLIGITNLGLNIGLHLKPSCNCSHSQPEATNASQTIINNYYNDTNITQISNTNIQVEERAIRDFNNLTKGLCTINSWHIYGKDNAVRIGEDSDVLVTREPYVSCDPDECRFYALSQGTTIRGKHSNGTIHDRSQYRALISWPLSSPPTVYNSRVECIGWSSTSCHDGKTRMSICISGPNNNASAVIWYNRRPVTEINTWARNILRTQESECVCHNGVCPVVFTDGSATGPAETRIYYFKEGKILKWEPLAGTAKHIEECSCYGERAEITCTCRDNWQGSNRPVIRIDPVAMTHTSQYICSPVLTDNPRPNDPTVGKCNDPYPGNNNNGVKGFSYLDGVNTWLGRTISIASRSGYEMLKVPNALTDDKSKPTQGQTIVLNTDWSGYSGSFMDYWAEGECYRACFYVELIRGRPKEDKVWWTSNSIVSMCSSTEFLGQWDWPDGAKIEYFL", "type": "biochemical", "conditions": "pH 5.9"}, "[7]": {"target": "C. perfringens (GH33) sialidase (NanI) (Clostridium perfringens, UniProt A0A0H2YQR1)", "sequence (A0A0H2YQR1 1-694)": "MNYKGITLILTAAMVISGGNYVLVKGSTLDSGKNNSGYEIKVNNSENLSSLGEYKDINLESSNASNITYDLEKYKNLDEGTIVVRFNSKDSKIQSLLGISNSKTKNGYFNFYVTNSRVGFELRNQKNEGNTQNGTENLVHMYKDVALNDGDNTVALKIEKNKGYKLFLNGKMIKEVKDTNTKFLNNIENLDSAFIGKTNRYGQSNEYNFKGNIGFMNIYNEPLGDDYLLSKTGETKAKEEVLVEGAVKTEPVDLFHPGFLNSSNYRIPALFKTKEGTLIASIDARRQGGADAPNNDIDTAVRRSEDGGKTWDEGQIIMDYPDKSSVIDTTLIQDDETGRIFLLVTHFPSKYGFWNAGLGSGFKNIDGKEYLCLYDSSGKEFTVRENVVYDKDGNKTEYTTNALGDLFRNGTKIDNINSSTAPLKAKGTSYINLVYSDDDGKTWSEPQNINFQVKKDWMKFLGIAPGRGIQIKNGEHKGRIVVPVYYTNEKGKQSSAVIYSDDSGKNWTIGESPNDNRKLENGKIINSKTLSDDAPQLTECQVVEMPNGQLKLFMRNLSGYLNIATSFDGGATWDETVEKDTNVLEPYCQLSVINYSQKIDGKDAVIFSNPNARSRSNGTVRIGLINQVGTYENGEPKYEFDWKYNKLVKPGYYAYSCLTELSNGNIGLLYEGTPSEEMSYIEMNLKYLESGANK", "type": "biochemical"}}, "note": "Structures can show the parent of a compound that is named as a salt. Where two headings read alike, the source gives them in different places.", "data": [{"smiles": "CC(=O)N[C@H]1[C@H]([C@H](O)[C@H](O)CO)O[C@](OP(=O)(O)OC[C@H]2O[C@@H](n3ccc(N)nc3=O)[C@H](O)[C@@H]2O)(C(=O)O)C[C@@H]1O", "note": "[compound 16, CMP-NeuNAc, reference compound]", "values": [{"measurement": "krel", "setting": "[1]; spontaneous hydrolysis rate relative to CMP-NeuNAc", "result": 1}, {"measurement": "Hydrolysis rate constant", "setting": "[1]; spontaneous hydrolysis, high salt pH 7.2 buffer, 1H-NMR", "result": "0.94 (±0.01) h^−1"}, {"measurement": "kcat (rel)", "setting": "[2]", "result": 1}, {"measurement": "kcat (rel)", "setting": "[3]", "result": 1}]}, {"smiles": "CC(=O)NC1C(O)CC(OC2C(O)C(CO)OC(Oc3ccc4c(C)cc(=O)oc4c3)C2O)(C(=O)O)OC1C(O)C(O)CO", "note": "[compound 19, 4-Methylumbelliferyl (5-acetamido-3,5-dideoxy-D-glycero-α-D-galacto-non2-ulopyranosylonic acid)-(2→3)-β-D-galactopyranoside, reference compound]", "values": [{"measurement": "spontaneous hydrolysis rate constant", "setting": "[4]", "result": "1.45 (±0.8) h-1"}]}, {"smiles": "CC(=O)NC1C(O)CC(OC2C(O)C(CO)OC(Oc3ccc4c(C)cc(=O)oc4c3)C2O)(C(=O)O)OC1C(F)C(O)CO", "note": "[compound 20, 4-Methylumbelliferyl (5-acetamido-3,5,7-trideoxy-7-fluoro-D-glycero-α-D-galacto-non2-ulopyranosylonic acid)-(23)-β-D-galactopyranoside]", "values": [{"measurement": "spontaneous hydrolysis rate constant", "setting": "[4]", "result": "0.29 (±0.01) h-1"}]}, {"smiles": "CC(=O)N[C@H]1[C@H]([C@H](F)[C@H](O)CO)O[C@@](O[C@H]2[C@@H](O)[C@@H](CO)O[C@@H](Oc3ccccc3[N+](=O)[O-])[C@@H]2O)(C(=O)O)C[C@@H]1O", "note": "[compound 18, ortho-Nitrophenyl (5-Acetamido-3,5,7-trideoxy-7-fluoro-D-glycero-α-D-galacto-non2-ulopyranosylonic acid)-(2→3)-β-D-galactopyranoside]", "values": [{"measurement": "saturation of enzyme by substrate", "setting": "[5]", "result": "Saturation was not achieved"}, {"measurement": "Km", "setting": "[6]", "result": 390, "unit": "µM"}, {"measurement": "Vm", "setting": "[6]", "result": "4.6 (±0.2) μM min^−1"}, {"measurement": "saturation of enzyme by substrate", "setting": "[7]", "result": "Saturation was not achieved"}]}, {"smiles": "CC(=O)N[C@H]1[C@H](C(F)(F)[C@H](O)CO)O[C@](OP(=O)(O)OC[C@H]2O[C@@H](n3ccc(N)nc3=O)[C@H](O)[C@@H]2O)(C(=O)O)C[C@@H]1O", "note": "[compound 15, 5-Acetamido-3,5,7-trideoxy-2-(hydrogen 5′-cytidylate)-7,7-difluoro-D-glycero-b-D-galacto-2-nonulopyranosidic acid diammonium salt]", "values": [{"measurement": "krel", "setting": "[1]", "result": 0.01}, {"measurement": "Hydrolysis rate constant", "setting": "[1]; pH 7.2", "result": "0.0084 (±0.0008) h^−1"}, {"measurement": "kcat (rel)", "setting": "[2]", "result": 0.25}, {"measurement": "kcat (rel)", "setting": "[3]", "result": 0.06}]}, {"smiles": "CC(=O)N[C@H]1[C@H]([C@H](O)[C@H](O)CO)O[C@@](O[C@H]2[C@@H](O)[C@@H](CO)O[C@@H](Oc3ccccc3[N+](=O)[O-])[C@@H]2O)(C(=O)O)C[C@@H]1O", "note": "[compound 17, ortho-Nitrophenyl (5-Acetamido-3,5-dideoxy-D-glycero-α-D-galacto-non2-ulopyranosylonic acid)-(2→3)-β-D-galactopyranoside, reference compound]", "values": [{"measurement": "kcat", "setting": "[5]; sialidase substrate, 30° C., pH 6.0", "result": "83 (±4) min^−1"}, {"measurement": "Km", "setting": "[6]", "result": 830, "unit": "µM"}, {"measurement": "Vm", "setting": "[6]", "result": "17.5 (±0.5) μM min^−1"}, {"measurement": "Km", "setting": "[7]; pH 6.7", "result": 800, "unit": "µM"}, {"measurement": "kcat", "setting": "[7]; pH 6.7", "result": "78 (±2) min^−1"}]}, {"smiles": "CC(=O)N[C@H]1[C@H]([C@H](F)[C@H](O)CO)O[C@](OP(=O)(O)OC[C@H]2O[C@@H](n3ccc(N)nc3=O)[C@H](O)[C@@H]2O)(C(=O)O)C[C@@H]1O", "note": "[compound 14, 5-Acetamido-3,5,7-trideoxy-2-(hydrogen 5′-cytidylate)-7-fluoro-D-glycero-b-D-galacto-2-nonulopyranosidic acid diammonium salt]", "values": [{"measurement": "krel", "setting": "[1]", "result": 0.33}, {"measurement": "Hydrolysis rate constant", "setting": "[1]; pH 7.2", "result": "0.313 (±0.002) h^−1"}, {"measurement": "kcat (rel)", "setting": "[2]", "result": 0.77}, {"measurement": "kcat (rel)", "setting": "[3]", "result": 0.54}]}]}
